According to patent US6787564B2, “Optically active clausenamides, process of the preparation thereof, pharmaceutical composition containing the same and their medical use” (Institute of Materia Medica, Chinese Academy of Medical …, priority 2002, dated 2004):

Assays:
A β 25-35 treated rats = assay: Morris water maze, A β 25-35 induced impairment of memory; type: in vivo; settings: for initial heading angle on the 3th day (in words): (−),(+) clausenamide 8 and 40 mg.kg^−1, piracetam 400 mg·kg^−1; for initial heading angle on the 3th day (in words) / latency for finding the platform, 3th to 5th day: vs A β group; for latency for finding the platform, 3th to 5th day: (−),(+) clausenamide 8 and 40 mg·kg^−1, piracetam 400 mg.kg^−1
Source text: Pathological features of Alzheimer's disease (AD) include extensive neuronal loss and the presence of numerous neurofibrillary tangles and senile plaques in the brain. The senile plaques contain amyloid fibrils derived from a 39-43 amino acids peptide referred to as β-amyloid or A β which can produce neurotoxicity. A β 25-35 poccesses the similar neurotoxicity and ability of self-aggregation as A β 1-42. Administrated aggregated A β 25-35 into rat's lateral cerebral ventricle induced memory impairment in Morris water maze.
With increasing of training days, the initial heading angle became small. On the 3th day, the initial heading angle of A β group was larger than control. […] (see Tab.3)
There are four strategies for finding platform in Morris water maze: random, circle, taxis and line. In the beginning of training the search strategies for finding target is mainly circle and random, with the increasing of training, the percentage of the two strategies declined gradually, Beginning from the 3th day, declining speed in control and (−) clausenamide group was faster than A β,(+) clausenamide and piracetam groups.

[1] = system: animals with anisodine-induced memory impairment; assay: memory impairment induced by anisodine in water maze test; type: in vivo; settings: anisodine + drug 500 mg/kg
Source text: (§1) This invention used one trial avoidance task—step-down and step-through tests and water maze to compare the improving memorial effects of (±), (−) clausenamide. The drugs were given orally once to animals before experiment in step-down and step-through tests. The water maze test lasted for 5 days in succession. The results were expressed as latency and errors number.

animals [2] = assay: memory in water maze test; type: in vivo; settings: 500 mg/kg
Source text: as §1

[3] = system: β-AP (25-35)-treated rats; assay: one trial passive avoidance of β-AP (25-35)-treated rats; type: in vivo
animals [4] = assay: nootropic action overall: step-down, step-through and water maze tests; type: in vivo; settings: oral; Tab.4 to Tab.7
Procedure: This invention used one trial avoidance task—step-down and step-through tests and water maze to compare the improving memorial effects of (±), (−) clausenamide.
The drugs were given orally once to animals before experiment in step-down and step-through tests. The water maze test lasted for 5 days in succession. The results were expressed as latency and errors number.
The effective dose of piracetam was 500 mg.kg^−1.

[5] = system: animals with anisodine-induced memory impairment; assay: step-down test, memory impairment induced by anisodine; type: in vivo; settings: 500 mg/kg oral once
Source text: as §1

[6] = system: animals with anisodine-induced memory impairment; assay: step-through test, memory impairment induced by anisodine; type: in vivo; settings: 500 mg/kg oral once
Source text: as §1

mGlu receptor = assay: effect of mGlu antagonist on LTP in hippocampal DG in vivo; parameters: species or system rats
Source text: (§2) The rats were anaesthetized with urethane carbonate.
3. Glutamate, the most abundant excitatory neurotransmitter in the CNS, released from presynaptic site and activated a variety of postsynaptic receptor, and then potentiated synaptic transmission. mGlu R (metabotropic glutamate receptor) indirectly regulates signaling and activats various second messenger cascades.

calcineurin = calcineurin activity in the cortical and hippocampal tissue; settings: without HFS; Nimodipine 2 nmol; mean ± S.D., n = 5; control 7.8 ± 0.6
Source text: The rats were anaesthetized with urethane carbonate. The recording and stimulating electrodes were made from Teflon coated stainless steel wires. The bipolar stimulating electrode was sterotaxically placed in the entorhinal cortex to stimulate the perforant path, and the evoked potential was extracellular recorded from the dentate gyrus granule cell layer of ipsilateral. The population spike (PS) is served as an indication of granule cell's excitation. Long term potentiation (LTP) was induced by a 200 Hz high frequency stimulation 5×single square wave pulses of 0.2 ms duration. The drug or vehicle (DMSO) were injected into lateral cerebral ventricle in a 5 μl volume over a 5 min period via a Hamilton syringe.

calpain = calpain activity in the cortical and hippocampal tissue; type: in vivo, rats; settings: without HFS, Nimodipine 2 nmol, mean ± S.D., n = 5; for calpain activity, Cortical tissue: control 1.5 ± 0.2; for calpain activity, Hippocampal tissue: control 1.7 ± 0.5
Source text: as §2

BDNF = BDNF protein expression in cortical neurons and hippocampal pyramide cells; type: in vivo, rats; settings: 8, 40 mg·kg^−1 orally daily for 10 days
rats = assay: mossy fiber sprouting in fascia dentata and hippocampal CA3 region; type: in vivo; settings: 8 and 40 mg·kg^−1 orally daily for 10 days; adult rat
Source text: 2. […] This is morphological basis for levoclausenamide to incnease synaptic transmission (see FIGS. 1 and 2).

[7] = system: dentate gyrus granule cells; assay: basal synaptic transmission / LTP in dentate gyrus of hippocampus in anesthetized rats (population spike amplitude); type: in vivo; settings: icv
Source text: Drugs or vehicle injection were delivered via cannula in the lateral cerebral ventricle at final concentration of 2×10^−6 mol/L. The population spike (PS) amplitude was employed as an indication of the level of excitation of the granular cell population in the dentate gyrus. To obtain this measurement, an evoked response was generated in the dentate gyrus granule cell layer by stimulating the pp at low freguency (0.033 Hz) with. single square wave pulses of 0.15 ms duration The LTP formation must accord the following creteria: The PS amplitude increased is over 30% and this high PS amplitude can persist for 40 min.

[8] = system: dentate gyrus of hippocampus; assay: induction of LTP in hippocampal of rat (population spike amplitude); type: in vivo, SD rats; settings: I.C.V.; means ± SD
Source text: Adult male SD rats were anesthetized to maintain a surgical level. A stainless steel cannula-recording electrode was placed in DG (dentate gyrus) of hippocampus using a stereotaxic instrument. The combination of cannula-recording electrode was constructed by insulating the outside of the cannula, except at the tip and top. In the top noninsulated area, a stainless steel wire was wrapped around the cannula and connected to the amplifier via an amphenol connector. The four pairs optically active clausenamides shown in table 9 was delivered by I.C.V. Responses were evoked via direct stimulation of the performant path (PP) using a stainless steel bipolar stimulating electrode. Constant current stimulation provided by a stimulator was delivered to the stimulating electrode through a Stimulus Isolation Unit.
The stimulating electrode was adjusted until a characteristic EPSP was observed under constant current. The evoked responses were amplified on a series alternating current preamplifier, using a microcomputer, and then stored for off-line analysis using DataWave software. The current intensity that elicited a 50% maximal response in each animal was determined and used for all subsequent stimulation. To measure treatment effects, responses were evoked once every 30 sec throughout the entire experiment, and population spike amplitude(PSA) were calculated.

[9] = β-AP-treated + drug 400 mg/kg, n = 8
[10] = β-AP-treated + drug 8 mg/kg, n = 9
[11] = β-AP-treated + drug 40 mg/kg, n = 9

Molecule: NC(=O)CN1CCCC1=O [Piracetam, 2-oxo-1 pyrolidine acetamide]
- initial heading angle on the 3th day (in words) (A β 25-35 treated rats): showed no improving effects
- latency for finding the platform, 3th to 5th day (A β 25-35 treated rats): showed no effect
- initial heading angle, training day 1 (A β 25-35 treated rats; A β 25-35 + drug at 400 mg/kg): 92.5 ± 28.9
- initial heading angle, training day 2 (A β 25-35 treated rats; A β 25-35 + drug at 400 mg/kg): 87.3 ± 24.2
- initial heading angle, training day 3 (A β 25-35 treated rats; A β 25-35 + drug at 400 mg/kg): 74.6 ± 23.7
- initial heading angle, training day 4 (A β 25-35 treated rats; A β 25-35 + drug at 400 mg/kg): 62.5 ± 19.6
- initial heading angle, training day 5 (A β 25-35 treated rats; A β 25-35 + drug at 400 mg/kg): 44.5 ± 14.3
- Errors number [1]: 23.5 ± 25.0
- Lalencies reaching platform, 3rd day (animals [2]; 0.9% Nacl 25.8 ± 18.4): 18.6 ± 9.9 s
- Lalencies reaching platform, 4th day (animals [2]; 0.9% Nacl 26.1 ± 38.4): 16.7 ± 16.3 s
- Lalencies reaching platform, Second day (animals [2]; N = 10, X ± S.D., 0.9% Nacl 32.4 ± 29.2): 32.2 ± 22.6 s
- Number of error, Acquisition [3, 9]: 1.6 ± 0.26
- Number of error, Training [3, 9]: 4.1 ± 1.14
- effective dose of piracetam (comparator) (animals [4]): 500 mg/kg
- Error number, Step-down ([5]; 0.9% Nacl + anisodine 0.9 ± 1.0): 0.7 ± 0.5
- Latencies, Step-down ([5]; 0.9% Nacl + anisodine 184 ± 105): 180 ± 110 s
- Latencies, Step-through ([6]; 0.9% Nacl + anisodine 24.4 ± 59): 107 ± 110 s
- Error number, Step-through ([6]; N = 10, X ± SD, 0.9% Nacl + anisodine 12.7 ± 4.6): 4.1 ± 3.2

Molecule: CC(N)(C(=O)O)c1ccc(C(=O)O)cc1 (racemic) [(±) MCPG, (±)-α-methyl-4-carboxyphenylglycine]
- induction of LTP induced by HFS and levoclausenamide (mGlu receptor; 10 μmol, icv): inhibited the induction of LTP
- established LTP (mGlu receptor; given 15 min after HFS or levoclausenamide): reversed the established LTP

Molecule: COCCOC(=O)C1=C(C)NC(C)=C(C(=O)OC(C)C)C1c1cccc([N+](=O)[O-])c1 (stereo not shown) [Nimodipine]
- calcineurin activity, Hippocampal tissue (calcineurin): 7.7 ± 0.8 (μmol Pi)/hr/μ g protein
- calpain activity, Cortical tissue (calpain): 1.7 ± 0.3 ΔA595nm/hr/mg protein
- calpain activity, Hippocampal tissue (calpain): 1.8 ± 0.5 ΔA595nm/hr/mg protein

Molecule: NC(CCCP(=O)(O)O)C(=O)O (stereo not shown) [AP5]
- calcineurin activity, Hippocampal tissue (calcineurin): 8.1 ± 0.7 (μmol Pi)/hr/μ g protein
- calpain activity, Cortical tissue (calpain): 1.6 ± 0.4 ΔA595nm/hr/mg protein
- calpain activity, Hippocampal tissue (calpain): 1.6 ± 0.6 ΔA595nm/hr/mg protein

Molecule: (+) clausenamide [reference compound]
- initial heading angle on the 3th day (in words) (A β 25-35 treated rats): showed no improving effects
- latency for finding the platform, 3th to 5th day (A β 25-35 treated rats): showed no effect
- initial heading angle, training day 1 (A β 25-35 treated rats; A β 25-35 + drug at 8 mg/kg): 99.4 ± 31.7
- initial heading angle, training day 2 (A β 25-35 treated rats; A β 25-35 + drug at 8 mg/kg): 93.5 ± 29.6
- initial heading angle, training day 3 (A β 25-35 treated rats; A β 25-35 + drug at 8 mg/kg): 82.1 ± 26.7
- initial heading angle, training day 4 (A β 25-35 treated rats; A β 25-35 + drug at 8 mg/kg): 70.2 ± 21.5
- initial heading angle, training day 5 (A β 25-35 treated rats; A β 25-35 + drug at 8 mg/kg): 59.2 ± 18.3
- initial heading angle, training day 1 (A β 25-35 treated rats; A β 25-35 + drug at 40 mg/kg): 112.4 ± 32.8
- initial heading angle, training day 2 (A β 25-35 treated rats; A β 25-35 + drug at 40 mg/kg): 102.5 ± 28.7
- initial heading angle, training day 3 (A β 25-35 treated rats; A β 25-35 + drug at 40 mg/kg): 84.2 ± 22.5
- initial heading angle, training day 4 (A β 25-35 treated rats; A β 25-35 + drug at 40 mg/kg): 83.1 ± 26.5
- initial heading angle, training day 5 (A β 25-35 treated rats; A β 25-35 + drug at 40 mg/kg): 65.4 ± 20.8
- BDNF protein expression in the cortical neurons and pyramide cells in the hippocampus (BDNF): slightly increasing effect only at a dose of 40 mg·kg^−1
- mossy fiber sprouting in the fascia dentate and stratum lucidum (rats): no significant effect
- PS % at 15′, in comparison with control (vehicle) group ([7]; 2×10^−6 mol/L): −2.7%
- PS % at 30′, in comparison with before drug ([7]; 2×10^−6 mol/L): −5.9%
- PS % at 30′, in comparison with control (vehicle) group ([7]; 2×10^−6 mol/L): −12.0%
- PS % at 45′, in comparison with before drug ([7]; 2×10^−6 mol/L): −12.9%
- PS % at 45′, in comparison with control (vehicle) group ([7]; 2×10^−6 mol/L): −20.0%
- PS % at 60′, in comparison with before drug ([7]; 2×10^−6 mol/L): −14.9%
- PS % at 60′, in comparison with control (vehicle) group ([7]; 2×10^−6 mol/L): −23.2%
- PS amplitude 30′ after drug ([7]; 2×10^−6 mol/L, control 108 ± 7): 95 ± 9
- PS amplitude 45′ after drug ([7]; 2×10^−6 mol/L, control 110 ± 10): 88 ± 15
- PS amplitude 60′ after drug ([7]; 2×10^−6 mol/L, control 112 ± 7): 86 ± 18
- PS amplitude 15′ after drug ([7]; final concentration 2×10^−6 mol/L, control 110 ± 9): 107 ± 8
- Number of error, Acquisition [3, 10]: 0.8 ± 0.38
- Number of error, Training [3, 10]: 3.3 ± 0.42
- Number of error, Acquisition [3, 11]: 1.1 ± 0.19
- Number of error, Training [3, 11]: 3.9 ± 2.3
- PSA (%), 15 min [8]: 90.6 ± 0.3%
- PSA (%), 30 min [8]: 110.1 ± 13.1%
- PSA (%), 60 min [8]: 106.4 ± 4.1%
